Test results published in patent US7713994B2 (Wyeth LLC, priority 2005, dated 2010).
Where two headings read alike, the source gives them in different places.

Key:
[1] = biological target: T1, cyclin E/CDK2 enzyme (Homo sapiens, UniProt P24941); experiment: CDK2 ELISA kinase assay (phospho-Rb ser 795 detection); type: biochemical
T1 construct: made in house; host or cells: Sf9 insect cells, recombinant baculovirus
Outline: (§1)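 Inhibition was derived from A450 relative to control wells lacking compound, following an anti-phospho-Rb Ser795 sandwich of HRP detection. The reactions combined coated GST-Rb fragment, 200 μM ATP and baculovirus-expressed cyclin/CDK enzymes, incubated for 1 h at 30° C.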

[2] = biological target: T2, cyclin D1/cdk 4 enzyme (Homo sapiens, UniProt P11802); experiment: CDK4 ELISA kinase assay (phospho-Rb ser 795 detection); type: biochemical
T2 construct: made in house; host or cells: Sf9 insect cells, recombinant baculovirus
Outline: as §1

[3] = biological target: T3, cyclin B/CDK1 enzyme (Homo sapiens, UniProt P06493); experiment: CDK1 ELISA kinase assay (phospho-Rb ser 795 detection); type: biochemical
T3 construct: purchased New England BioLabs; host or cells: Sf9 insect cells, recombinant baculovirus
Outline: as §1

[4] = system: LoVo; experiment: Cytotoxicity assay (SRB), LoVo; type: cell-based; conditions: Homo sapiens, LoVo, 72 h, LoVo cells, SRB, read-out: In Vitro Cellular Activity IC50 LOVO
Outline: (§2)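 BT474 (12000 cells/well) was treated for 6 days, whereas HCT-116 (4000), LoVo (6000) and MCF-7 (6000) were treated for 3 days, all in RPMI 1640 containing 5% FBS. Surviving-cell percentage came from SRB dye binding measured at 540 nm.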

[5] = system: MCF-7; experiment: Cytotoxicity assay (SRB), MCF-7; type: cell-based; conditions: Homo sapiens, MCF7, 72 h, MCF-7 cells, SRB, read-out: In Vitro Cellular Activity IC50 MCF-7
Outline: as §2

[6] = system: BT474; experiment: Cytotoxicity assay (SRB), BT474; type: cell-based
Outline: as §2

[7] = system: HCT-116; experiment: Cytotoxicity assay (SRB), HCT-116; type: cell-based; conditions: Homo sapiens, HCT-116, 72 h, HCT116 cells, SRB, read-out: In Vitro Cellular Activity IC50 HCT116
Outline: as §2

[8] = In Vitro Enzyme Assays, read-out: CDK2 IC50
[9] = In Vitro Enzyme Assays, 200 μM ATP, read-out: CDK4 IC50
[10] = In Vitro Enzyme Assays, read-out: CDK1 IC50
[11] = Homo sapiens, BT-474, 144 h, BT474 cells, SRB, 6 days; read-out: In Vitro Cellular Activity IC50 BT474
[12] = Homo sapiens, BT-474, 144 h, BT474 cells, 6 days, SRB; read-out: In Vitro Cellular Activity IC50 BT474

T2 sequence (P11802 whole entry, species assumed): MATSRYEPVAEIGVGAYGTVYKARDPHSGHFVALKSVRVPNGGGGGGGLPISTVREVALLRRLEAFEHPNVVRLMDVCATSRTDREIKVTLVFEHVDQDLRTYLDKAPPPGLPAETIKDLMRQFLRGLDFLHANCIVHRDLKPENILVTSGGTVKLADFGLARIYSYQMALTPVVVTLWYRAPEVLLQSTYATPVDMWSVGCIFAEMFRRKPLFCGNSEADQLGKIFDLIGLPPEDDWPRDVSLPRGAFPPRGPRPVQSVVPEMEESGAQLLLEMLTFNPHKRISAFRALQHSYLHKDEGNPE
T2 sequence (P24385 whole entry partner, species assumed): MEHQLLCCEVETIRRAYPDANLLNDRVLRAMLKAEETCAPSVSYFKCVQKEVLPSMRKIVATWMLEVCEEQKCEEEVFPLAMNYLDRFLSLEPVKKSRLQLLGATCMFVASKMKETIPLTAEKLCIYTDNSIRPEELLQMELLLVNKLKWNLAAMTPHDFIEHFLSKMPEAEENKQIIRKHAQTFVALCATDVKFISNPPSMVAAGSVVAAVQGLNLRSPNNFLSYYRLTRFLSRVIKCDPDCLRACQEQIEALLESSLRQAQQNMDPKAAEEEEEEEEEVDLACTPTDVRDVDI
T3 sequence (P06493 whole entry): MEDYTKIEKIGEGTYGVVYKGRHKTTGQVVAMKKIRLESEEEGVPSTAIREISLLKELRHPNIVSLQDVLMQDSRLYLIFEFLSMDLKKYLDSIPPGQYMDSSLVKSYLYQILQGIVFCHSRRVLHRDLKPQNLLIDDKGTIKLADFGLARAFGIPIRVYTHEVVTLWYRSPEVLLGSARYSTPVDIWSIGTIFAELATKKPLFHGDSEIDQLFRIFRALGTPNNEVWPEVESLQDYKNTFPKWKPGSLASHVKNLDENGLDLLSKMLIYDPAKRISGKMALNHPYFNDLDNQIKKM
T3 sequence (P14635 whole entry partner): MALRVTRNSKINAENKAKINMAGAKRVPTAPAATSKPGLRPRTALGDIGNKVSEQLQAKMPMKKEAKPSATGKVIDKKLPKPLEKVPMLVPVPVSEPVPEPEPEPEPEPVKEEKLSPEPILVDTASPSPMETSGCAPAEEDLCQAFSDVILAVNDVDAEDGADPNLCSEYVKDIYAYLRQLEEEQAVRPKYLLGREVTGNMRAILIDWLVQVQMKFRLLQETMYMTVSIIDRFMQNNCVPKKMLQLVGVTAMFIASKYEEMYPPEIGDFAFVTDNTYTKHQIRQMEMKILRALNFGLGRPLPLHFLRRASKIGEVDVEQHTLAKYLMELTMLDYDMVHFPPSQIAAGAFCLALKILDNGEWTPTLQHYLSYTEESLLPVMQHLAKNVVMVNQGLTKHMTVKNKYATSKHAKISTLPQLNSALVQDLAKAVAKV

SMILES | IC50 [1, 8] [µM] | IC50 [2, 9] [µM] | IC50 [3, 10] [µM] | IC50 ([4]; three days) [µM] | IC50 ([5]; three days) [µM] | IC50 [6, 11] [µM] | melting point | IC50 ([7]; three days) [µM] | IC50 ([1]; In Vitro Enzyme Assay, cyclin E/CDK2, read-out: CDK2 IC50) [µM] | IC50 ([2]; In Vitro Enzyme Assay, cyclin D1/cdk 4, read-out: CDK4 IC50) [µM] | IC50 ([3]; In Vitro Enzyme Assay, cyclin B/CDK1, read-out: CDK1 IC50) [µM] | IC50 ([4]; 3 days) [µM] | IC50 ([5]; 3 days) [µM] | IC50 [6, 12] [µM] | IC50 ([7]; 3 days) [µM]
COC[C@H]1CCCN1Cc1ccc(N/C=C2\C(=O)NC(=O)c3ccc(-c4ccoc4)cc32)cc1 [Example 330, (4Z)-6-(3-Furyl)-4-{[(4-{[(2R)-2-(methoxymethyl)pyrrolidin-1-yl]methyl}phenyl)amino]methylene}isoquinoline-1,3(2H,4H)-dione] | > 50 | 0.2 | > 50 | 2.3 | 0.69 | 1 | 130 to 131 °C | 2.1 |  |  |  |  |  |  | 
O=C1NC(=O)c2ccc(Br)cc2/C1=C/NCc1cc(O)cc(O)c1 [Example 64] | 0.62 | 0.015 | 16.5 | > 50 | > 50 | 28 | 318 to 319 °C | > 50 |  |  |  |  |  |  | 
CCCOc1cnc(CN/C=C2\C(=O)NC(=O)c3ccc(-c4ccco4)cc32)cc1O [Example 502, 6-Furan-2-yl-4-{[(4-hydroxy-5-propoxy-pyridin-2-ylmethyl)-amino]-methylene}-4H-isoquinoline-1,3-dione] |  |  |  |  |  |  | 288 to 290 °C (dec.) |  | 2.8 | < 0.005 | 20.2 | 0.96 | 1.2 | 0.69 | 1.4
COc1ccc(CNC=C2C(=O)NCc3ccccc32)cc1O [Example 160, 4-[(3-Hydroxy-4-methoxy-benzylamino)-methylene]-1,4-dihydro-2H-isoquinoline-3-one] | 31 | 20.4 | > 50 | 43 | 30 | > 50 | 177 to 179 °C (dec.) | > 50 |  |  |  |  |  |  | 
COCCOc1ccc(CN/C=C2\C(=O)NC(=O)c3ccc(Br)cc32)cc1O [Example 158] | > 50 | 0.04 | > 50 | 30 | > 50 | 28 | 179 to 180 °C | 32 |  |  |  |  |  |  | 
COc1ccc(-c2ccc3c(c2)/C(=C/Nc2ccc(CN4CCCC4C)cc2)C(=O)NC3=O)cc1 (stereo not shown) [Example 358, (4Z)-6-(4-Methoxyphenyl)-4-[({4-[(2-methylpyrrolidin-1-yl)methyl]phenyl}amino)-methylene]-isoquinoline-1,3(2H,4H)-dione] | 43.4 | 0.31 | 35.5 | 3 | 2.5 | 2.6 | 232 to 233 °C | 1.4 |  |  |  |  |  |  | 
COc1cc(CN/C=C2\C(=O)NC(=O)c3ccc(-c4ccoc4)cc32)cc(O)c1OC [Example 87] | 8.1 | 0.0008 | 1.2 | 4.2 | 4.1 | 1.3 | 263 to 264 °C | 4.2 |  |  |  |  |  |  | 
O=C1NC(=O)c2ccc(I)cc2/C1=C/Nc1ccc(Cn2ccnc2)cc1 [Example 273, (4Z)-4-({[4-(1H-Imidazol-1-ylmethyl)phenyl]amino}methylene)-6-iodoisoquinoline-1,3(2H,4H)-dione] | 12.3 | 24.7 | > 50 | 7.9 | 13 | 7.5 | 275 to 276 °C | 3 |  |  |  |  |  |  | 
CC(=O)Nc1ccc(CN/C=C2\C(=O)NC(=O)c3ccc(I)cc32)cc1OC(C)=O [Example 146, 2-(Acetylamino)-5-({[(Z)-(6-iodo-1,3-dioxo-2,3-dihydroisoquinolin-4(1H)-′ylidene)methyl]amino}methyl)phenyl acetate] | 8.6 | 0.1 | > 50 | 0.86 | 2.7 | 0.49 | 264 to 265 °C | 0.66 |  |  |  |  |  |  | 
CN1CCN(c2ccc(N/C=C3\C(=O)NC(=O)c4ccc(F)cc43)cc2)CC1 [Example 70, (4Z)-6-Fluoro-4-({[4-(4-methylPiperzin-1-yl)phenyl]amino}methylene)isoquinoline-1,3(2H,4H)-dione] | > 50 | 9.4 | 16.9 | 5.18 | 4.06 | 3.23 | 242 to 243 °C | 2.55 |  |  |  |  |  |  | 
O=C1NC(=O)c2ccc(Br)cc2/C1=C/Nc1ccc(CN2CCOCC2)cc1 [Example 286, (4Z)-6-Bromo-4-({[4-(morpholin-4-ylmethyl)phenyl]amino}methylene)isoquinoline-1,3(2H,4H)-dione] | > 50 | 3 | > 50 | 11 | 5.5 | 16 | 209 to 210 °C | 5.8 |  |  |  |  |  |  | 
CCCNc1ccc(CN/C=C2\C(=O)NC(=O)c3ccc(I)cc32)cc1O [Example 366, (4Z)-4-({[3-Hydroxy-4-(propylamino)benzyl]amino}methylene)-6-iodoisoquinoline-1,3(2H,4H)-dione] | 1.9 | 0.12 | 31.7 | 2.8 | 6.9 | 3.8 | 236 to 237 °C | 3.3 |  |  |  |  |  |  | 
CN1CCN(c2ccc(N/C=C3\C(=O)NC(=O)c4ccc(-c5coc(C=O)c5)cc43)nc2)CC1 [Example 448, 4-[(4Z)-4-({[5-(4-Methylpiperazin-1-yl)pyridin-2-yl]amino}methylene)-1,3-dioxo-1,2,3,4-tetrahydroisoquinolin-6-yl]-2-furaldehyde] | > 50 | 0.04 | 10 |  |  |  | 183 to 184 °C |  |  |  |  | 4.1 | 5 | 6.6 | 2.4
CN1CCN(c2ccc(N/C=C3\C(=O)NC(=O)c4ccc(Br)cc43)cc2F)CC1 [Example 288, (4Z)-6-Bromo-4-({[3-fluoro-4-(4-methylpiperazin-1-yl)phenyl]amino}methylene)-isoquinoline-1,3(2H,4H)-dione] | > 50 | 2.9 | > 50 | 2 | 1.5 | 1.8 | 206 to 207 °C | 1.7 |  |  |  |  |  |  | 
